This test deals with T1, Human factor D (Homo sapiens, UniProt P00746).
T1 construct: purified from human serum; purchased Complement Technology, Inc; host or cells: human serum
The test can be described thus: Human Factor D Assay. It is filed as biochemical. The following applies: Human factor D 80 nM, substrate Z-L-Lys-SBzl and DTNB, pH 7.5. The procedure: Other standard factor D inhibition assays are also available.
Human factor D (purified from human serum, Complement Technology, Inc.) at 80 nM final concentration is incubated with test compound at various concentrations for 5 minutes at room temperature in 50 mM Tris, 1M NaCl, pH 7.5. A synthetic substrate Z-L-Lys-SBzl and DTNB (Ellman's reagent) are added to final concentrations of 100 μM each. The increase in color is recorded at OD405 nm in a microplate in kinetic mode over 30 minutes with 30 second time points in a spectrofluorimeter. IC50 values are calculated by non-linear regression from the percentage of inhibition of complement factor D activity as a function of test compound concentration.

Bounds are passed on as bounds.

T1 sequence (P00746 26-253): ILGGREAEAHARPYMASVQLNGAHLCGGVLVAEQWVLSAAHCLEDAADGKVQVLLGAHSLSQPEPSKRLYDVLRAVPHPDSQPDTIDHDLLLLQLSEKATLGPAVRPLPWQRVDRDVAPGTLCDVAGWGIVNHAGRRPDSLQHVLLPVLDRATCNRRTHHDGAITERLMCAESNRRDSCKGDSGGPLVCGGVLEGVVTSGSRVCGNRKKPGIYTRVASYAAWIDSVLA

`CC(=O)c1cn(CC(=O)N2C[C@H](F)C[C@H]2c2ncc(-c3cccc(Br)n3)[nH]2)c2ccccc12` [Compound 13, 2-(3-acetyl-1H-indol-1-yl)-1-((2S,4R)-2-(5-(6-bromopyridin-2-yl)-1H-imidazol-2-yl)-4-fluoropyrrolidin-1-yl)ethanone] displayed an IC50 of 1 to 10 µM.

`[2H]C([2H])(NC(=O)[C@@H]1C[C@@H](F)CN1C(=O)Cn1nc(C(N)=O)c2ccncc21)c1cccc(Cl)c1F` [Compound 128, (2S,4R)-1-(2-(3-carbamoyl-1H-pyrazolo[3,4-c]pyridin-1-yl)acetyl)-4-fluoropyrrolidine-2-carboxamide, N-(3-chloro-2-fluorophenylmethyl-d2)]: the IC50 is less than 1 µM.

For `CC(=O)c1cn(CC(=O)N2C[C@H](F)C[C@H]2C(=O)NC2CCc3ccccc32)c2ccccc12` (some centres unmarked) [Compound 42], the IC50 was 1 to 10 µM.

Consider `CC(=O)c1cn(CC(=O)N2C[C@H](F)C[C@H]2c2ncc(-c3cccc(Br)n3)[nH]2)c2cc(O)ccc12` [Compound 40, 2-(3-acetyl-6-hydroxy-1H-indol-1-yl)-1-((2S,4R)-2-(5-(6-bromopyridin-2-yl)-1H-imidazol-2-yl)-4-fluoropyrrolidin-1-yl)ethanone], for which the IC50 is 1 to 10 µM.

Consider `NC(=O)n1cc(NC(=O)N2C[C@H](F)C[C@H]2c2nc3cc(Cl)ccc3[nH]2)c2ccccc21` [Compound 14, 3-((2S,4R)-2-(5-chloro-1H-benzo[d]imidazol-2-yl)-4-fluoropyrrolidine-1-carboxamido)-1H-indole-1-carboxamide], for which the IC50 lay within 1 to 10 µM.

Regarding `CC(=NC#N)c1cn(CC(=O)N2C[C@H](F)C[C@H]2C(=O)NCc2cccc(Cl)c2F)c2ccccc12` [Compound 32, (2S,4R)-N-(3-chloro-2-fluorobenzyl)-1-(2-(3-(1-(cyanoimino)ethyl)-1H-indol-1-yl)acetyl)-4-fluoropyrrolidine-2-carboxamide], the IC50 lay within 1 to 10 µM.

As for `NC(=O)n1cc(NC(=O)N2C[C@H](F)C[C@H]2c2ncc(-c3cccc(Br)n3)[nH]2)c2ccccc21` [Compound 12, 3-((2S,4R)-2-(5-(6-bromopyridin-2-yl)-1H-imidazol-2-yl)-4-fluoropyrrolidine-1-carboxamido)-1H-indole-1-carboxamide], the 50% inhibitory concentration (IC50) lay within 1 to 10 µM.

Take `CC(=O)c1cn(CC(=O)N2[C@@H]3CCCC[C@@H]3C[C@H]2C(=O)NCc2cccc(Cl)c2F)c2cc(O)ccc12` [Compound 66, (2S,3aR,7aR)-1-(2-(3-acetyl-6-hydroxy-1H-indol-1-yl)acetyl)-N-(3-chloro-2-fluorobenzyl)octahydro-1H-indole-2-carboxamide]: the IC50 lay within 1 to 10 µM.

Compound `NC(=O)n1cc(NC(=O)[C@@H]2CCC[C@H]2C(=O)NCc2cccc(Cl)c2F)c2ccccc21` [Compound 23, (1R,2R)-N1-(1-carbamoyl-1H-indol-3-yl)-N2-(3-chloro-2-fluorobenzyl)cyclopentane-1,2-dicarboxamide] came in with an IC50 of 1 to 10 µM.

Compound `CCOP(=O)(OCC)c1nn(CC(=O)N2C[C@H](F)C[C@H]2C(=O)NCc2cccc(Cl)c2F)c2cnccc12` [Compound 53, diethyl 1-(2-((2S,4R)-2-(3-chloro-2-fluorobenzylcarbamoyl)-4-fluoropyrrolidin-1-yl)-2-oxoethyl)-1H-pyrazolo[3,4-c]pyridin-3-ylphosphonate] came in with an IC50 of 1 to 10 µM.

As to `CC(=O)c1cn(CC(=O)N2CC3(C[C@H]2C(=O)Nc2cccc(OC(F)(F)F)c2F)OCCO3)c2cc(O)ccc12` [Compound 41, (S)-7-(2-(3-acetyl-6-hydroxy-1H-indol-1-yl)acetyl)-N-(2-fluoro-3-(trifluoromethoxy)phenyl)-1,4-dioxa-7-azaspiro[4.4]nonane-8-carboxamide], the IC50 was 1 to 10 µM.

The compound `COc1cccc2c1c(C(C)=O)cn2CC(=O)N1C[C@H](F)C[C@H]1C(=O)Nc1cccc(-c2ccccc2Cl)c1F` [Compound 96, (2S,4R)-1-(2-(3-acetyl-4-methoxy-1H-indol-1-yl)acetyl)-N-(2′-chloro-2-fluorobiphenyl-3-yl)-4-fluoropyrrolidine-2-carboxamide] registered an IC50 of 1 to 10 µM.

In the case of `NC(=O)n1cc(NC(=O)N2c3ccccc3C[C@H]2C(=O)NCc2cccc(Cl)c2F)c2ccccc21` [Compound 2, (S)-N1-(1-carbamoyl-1H-indol-3-yl)-N2-(3-chloro-2-fluorobenzyl)indoline-1,2-dicarboxamide], the IC50 is 1 to 10 µM.

With `CC(=O)c1cn(CC(=O)N2C[C@H](F)C[C@H]2C(=O)NC2CCc3c(Cl)cccc32)c2ccccc12` (stereo partly drawn) [Compound 44, (2S,4R)-1-(2-(3-acetyl-1H-indol-1-yl)acetyl)-N-(4-chloro-2,3-dihydro-1H-inden-1-yl)-4-fluoropyrrolidine-2-carboxamide], the IC50 was in the range of 1 to 10 µM.

Compound `NC(c1cn(CC(=O)N2C[C@H](F)C[C@H]2C(=O)NCc2cccc(Cl)c2F)c2ccccc12)C(F)(F)F` (stereo partly drawn) [Compound 78, (2S,4R)-1-(2-(3-(1-amino-2,2,2-trifluoroethyl)-1H-indol-1-yl)acetyl)-N-(3-chloro-2-fluorobenzyl)-4-fluoropyrrolidine-2-carboxamide] showed an IC50 of 1 to 10 µM.

Regarding `NC(=O)n1cc(NC(=O)N2C[C@H](F)C[C@H]2c2ncc(-c3cccc(Cl)c3)[nH]2)c2ccccc21` [Compound 10, 3-((2S,4R)-2-(5-(3-chlorophenyl)-1H-imidazol-2-yl)-4-fluoropyrrolidine-1-carboxamido)-1H-indole-1-carboxamide], the IC50 lay within 1 to 10 µM.

`[2H]C([2H])(NC(=O)[C@@H]1C[C@H]2C[C@H]2N1C(=O)Cn1nc(C(N)=O)c2ccncc21)c1cccc(Cl)c1F` [Compound 127, (1R,3S,5R)-2-(2-(3-carbamoyl-1H-pyrazolo[3,4-c]pyridin-1-yl)acetyl)-2-azabicyclo[3.1.0]hexane-3-carboxammide, N-(3-chloro-2-fluorophenylmethyl-d2)] had an IC50 of less than 1 µM.

`O=C(NCc1cccc(Cl)c1F)[C@@H]1C[C@@H](F)CN1C(=O)CC1=Nc2ccccc2S(=O)(=O)N1` [Compound 49, (2S,4R)-N-(3-chloro-2-fluorobenzyl)-1-(2-(1,1-dioxido-2H-benzo[e][1,2,4]thiadiazin-3-yl)acetyl)-4-fluoropyrrolidine-2-carboxamide] gave a half-maximal inhibitory concentration (IC50) of 1 to 10 µM.

For `CS(=O)(=O)N1CCc2c(n(CC(=O)N3C[C@H](F)C[C@H]3C(=O)NCc3cccc(Cl)c3F)c3ccccc23)C1` [Compound 69, (2S,4R)-N-(3-chloro-2-fluorobenzyl)-4-fluoro-1-(2-(2-(methylsulfonyl)-3,4-dihydro-1H-pyrido[3,4-b]indol-9(2H)-yl)acetyl)pyrrolidine-2-carboxamide], the 50% inhibitory concentration (IC50) was in the range of 1 to 10 µM.

Consider `CCOP(=O)(O)c1nn(CC(=O)N2C[C@H](F)C[C@H]2C(=O)NCc2cccc(Cl)c2F)c2cnccc12` [Compound 60, ethyl hydrogen 1-(2-((2S,4R)-2-(3-chloro-2-fluorobenzylcarbamoyl)-4-fluoropyrrolidin-1-yl)-2-oxoethyl)-1H-pyrazolo[3,4-c]pyridin-3-ylphosphonate], for which the IC50 was in the range of 1 to 10 µM.

Turning to `C=C[C@@H]1C[C@]1(NC(=O)[C@@H]1C[C@@H](F)CN1C(=O)Cn1cc(C(C)=O)c2ccc(O)cc21)C(=O)NS(=O)(=O)C1CC1` [Compound 64, (2S,4R)-1-(2-(3-acetyl-6-hydroxy-1H-indol-1-yl)acetyl)-N-((1R,2S)-1-(cyclopropylsulfonyl-carbamoyl)-2-vinylcyclopropyl)-4-fluoropyrrolidine-2-carboxamide], the IC50 fell in the range of 1 to 10 µM.

The compound `CC(=O)c1ccc(CC(=O)N2C[C@H](F)C[C@H]2C(=O)NCc2cccc(Cl)c2F)c2ccccc12` [Compound 58, (2S,4R)-1-(2-(4-acetylnaphthalen-1-yl)acetyl)-N-(3-chloro-2-fluorobenzyl)-4-fluoropyrrolidine-2-carboxamide] returned an IC50 of 1 to 10 µM.

In the case of `CCOP(=O)(OCC)c1cc(Cl)cc(NC(=O)[C@@H]2C[C@@H](F)CN2C(=O)Cn2cc(C(C)=O)c3ccccc32)c1` [Compound 59, diethyl 3-((2S,4R)-1-(2-(3-acetyl-1H-indol-1-yl)acetyl)-4-fluoropyrrolidine-2-carboxamido)-5-chlorophenylphosphonate], the IC50 was 1 to 10 µM.

Usually IC50 stands for the point on the concentration scale where inhibition reaches its midpoint. Lower therefore signals higher potency.
